Tests used:
DH5α cells –βla = assay: Whole-cell NMR β-lactamase hydrolysis assay, DH5α without β-lactamase; format: cell-based, E. coli; details: DH5α – CTX-M-1, 100 μM, 60 min
DH5α expressing CTX-M-1 = assay: Whole-cell NMR β-lactamase hydrolysis assay, DH5α + CTX-M-1; format: cell-based, E. coli; details: DH5α + CTX-M-1, 100 μM, 60 min
recombinant DNA gyrase = biological target: T1, recombinant DNA gyrase (Escherichia coli, UniProt P0AES4+P0AES6); assay: Recombinant DNA gyrase supercoiling assay ± CTX-M-15; format: biochemical, E. coli; details: ± CTX-M-15
T1 construct: purchased Inspiralis

CFT073 + pSU18 + CTX-M-1 = assay: Whole-cell NMR β-lactamase hydrolysis assay, CFT073 + CTX-M-1; format: cell-based, E. coli; details: 100 μM compound at 1 h by whole-cell NMR assay
E. coli strain DH5α = assay: MIC, broth microdilution, E. coli DH5α; format: cell-based; details: for MIC value DH5α: E. coli DH5α without β-lactamase
Procedure: Analysis of the literature identified the amide functionality at C-7 of the cephem ring as central to PBP and β-lactamase activity,[44]−[51] and therefore structural changes at this position provided the initial focus of investigation. By use of cephalothin 7 (Table 1) as the starting point, analogues were prepared to explore bioisosteric replacement,[52],[53] functionalities present in early generation β-lactam antibiotics, and to probe steric and electronic tolerance.[54],[55] All compounds were synthesized according to the previously reported methods (Figure S1 in Supporting Information).[55],[56] Antibacterial activity was assessed by determining the minimal concentration required to inhibit bacterial growth, known as the minimal inhibitory concentration (MIC), against the E. coli strain DH5α ± expression of the ESBL TEM-116.[57] The susceptibility to β-lactamase mediated hydrolysis was assessed by determining the physiological efficiency (kcat/Km) of hydrolysis by recombinant AmpC protein.[3],[58],[59] […]
pNDM pSU18 containing the native coding sequence for NDM-1 under the Jiménez-control of the native promoter Castellanos et […]
pKPC pSU18 containing the native coding sequence for KPC-3 under the Brem et al., control of the native promoter 20166
Transformation of E. coli with plasmids
Plasmids were introduced via heat shock into chemically competent DH5a and via electroporation into E. coli CFT073 following published protocols.8 […]
The bacterial strains and plasmids used in this study are detailed in Supplementary Table 1.
E. coli was grown in Mueller-Hinton Broth (MHB) or Lennox Broth (LB) at 37 °C, with shaking (180 r.p.m.) overnight (16-18 h). […]
MIC assays were performed in 96-well thermo scientific Nuclon Delta Surface plates and MICs were determined in accordance with the broth microdilution protocol.7 E. coli grown to stationary-phase in MHB or LB were adjusted to OD600 nm of 0.05 in MHB and […]
determined as the lowest concentration of antibiotic that inhibited visible bacterial growth.
OD595 measurements were recorded on a BioRad 1Mark Microplate Reader. […]
subsequently incubated at 37 °C with shaking (180 r.p.m.) and bacterial viability determined […]
Each compound was incubated for 1 hour at room temperature in 100 mM NaPO4 (pH 7) ± 0.5 M NaOH. The wavelength at which the difference between un-hydrolysed and hydrolysed compound was the greatest was selected (typically 263 nm) and a compound concentration vs. absorbance standard curve was generated. […] Recombinant Amp-C in assay buffer was added immediately before incubatio n in the microplate reader at 37 °C. UV absorbance was measured every 20 s for 1 h on a BMG LABTECH SPECTROstarNano. Kinetic parameters were determined by half -life analysis. […]

DH5α + TEM-116 = assay: Whole-cell NMR β-lactamase hydrolysis assay, DH5α + TEM-116; format: cell-based, E. coli; details: DH5α + TEM-116, 100 μM, 90 min
recombinant AmpC protein = biological target: T2, recombinant AmpC protein (Escherichia coli, UniProt P00811); format: biochemical
T2 construct: purchased Abcam ab104926
T2 sequence (P00811 20-377): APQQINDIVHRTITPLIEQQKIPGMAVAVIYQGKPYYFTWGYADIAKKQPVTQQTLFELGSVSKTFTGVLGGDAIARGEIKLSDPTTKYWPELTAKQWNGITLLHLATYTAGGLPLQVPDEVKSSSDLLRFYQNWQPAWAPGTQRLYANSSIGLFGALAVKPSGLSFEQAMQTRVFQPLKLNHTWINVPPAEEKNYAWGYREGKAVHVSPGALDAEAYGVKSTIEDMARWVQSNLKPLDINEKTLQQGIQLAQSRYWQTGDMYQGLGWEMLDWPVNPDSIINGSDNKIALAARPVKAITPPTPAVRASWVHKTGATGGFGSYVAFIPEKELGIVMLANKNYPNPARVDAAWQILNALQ

T1 sequence (P0AES4 whole entry, one chain of several): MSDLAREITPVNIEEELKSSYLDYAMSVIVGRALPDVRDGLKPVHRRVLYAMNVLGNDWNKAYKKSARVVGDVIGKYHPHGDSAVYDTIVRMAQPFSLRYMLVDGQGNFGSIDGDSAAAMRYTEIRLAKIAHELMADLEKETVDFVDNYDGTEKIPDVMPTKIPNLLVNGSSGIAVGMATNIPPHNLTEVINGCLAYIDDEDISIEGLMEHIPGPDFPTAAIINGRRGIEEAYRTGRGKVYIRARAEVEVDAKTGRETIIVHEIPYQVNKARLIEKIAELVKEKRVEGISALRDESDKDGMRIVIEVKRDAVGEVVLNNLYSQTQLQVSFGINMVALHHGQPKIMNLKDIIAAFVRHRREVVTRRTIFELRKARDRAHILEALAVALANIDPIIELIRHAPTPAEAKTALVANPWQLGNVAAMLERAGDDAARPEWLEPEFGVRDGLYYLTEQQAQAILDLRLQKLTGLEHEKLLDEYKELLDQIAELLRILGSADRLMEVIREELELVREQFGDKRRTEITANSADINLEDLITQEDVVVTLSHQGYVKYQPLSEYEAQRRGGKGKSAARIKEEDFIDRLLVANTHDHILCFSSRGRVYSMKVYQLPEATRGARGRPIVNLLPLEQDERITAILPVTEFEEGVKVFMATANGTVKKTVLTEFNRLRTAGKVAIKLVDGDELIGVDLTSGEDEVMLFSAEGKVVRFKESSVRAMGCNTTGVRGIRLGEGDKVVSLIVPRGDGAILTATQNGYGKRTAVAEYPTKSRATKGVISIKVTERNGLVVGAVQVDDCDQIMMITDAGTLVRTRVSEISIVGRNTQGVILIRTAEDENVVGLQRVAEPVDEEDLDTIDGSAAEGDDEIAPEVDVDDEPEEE

Row | Compound | % hydrolysis by NMR –βla (DH5α cells –βla) | % hydrolysis in CFT073 + pSU18 + CTX-M-1 (CFT073 + pSU18 + CTX-M-1) | MIC value DH5α (E. coli strain DH5α) | other results
1 | CC(=O)OCC1=C(C(=O)O)N2C(=O)[C@@H](NC(=O)Cc3cccs3)[C@H]2SC1 [Ceph 7, cephalothin, reference compound] | 0% |  |  | % hydrolysis by NMR +βla (DH5α expressing CTX-M-1; listed as cepaholothin 7): complete hydrolysis
2 | O=C(O)c1cn(C2CC2)c2cc(N3CCNCC3)c(F)cc2c1=O [Ciprofloxacin 31, ciprofloxacin, reference compound] |  |  |  | effect of CTX-M-15 on DNA gyrase inhibitory activity (recombinant DNA gyrase): not affected by CTX-M-15
3 | CC(=O)OCC1=C(C(=O)O)N2C(=O)[C@@H](NC(=O)[C@H](C)c3ccccc3)[C@H]2SC1 [compound 10, (6R,7R)-3-(Acetoxymethyl)-8-oxo-7-((R)-2-phenylpropanamido)-5-thia-1-azabicyclo[4.2.0]oct-2-ene-2-carboxylic Acid] |  | 0% |  | 
4 | CC(=O)OCC1=C(C(=O)O)N2C(=O)[C@@H](NC(=O)Cc3ccccc3)[C@H]2SC1 [compound 11, (6R,7R)-3-(Acetoxymethyl)-8-oxo-7-(2-phenylacetamido)-5-thia-1-azabicyclo[4.2.0]oct-2-ene-2-carboxylic Acid] |  |  |  | increase in MIC value against E. coli DH5α compared to cephalothin (E. coli strain DH5α): 4 fold
5 | CC(=O)OCC1=C(C(=O)O)N2C(=O)[C@@H](NC(=O)Cc3ccc(-c4ccccc4)cc3)[C@H]2SC1 [compound 16, (6R,7R)-7-(2-([1,1′-Biphenyl]-4-yl)acetamido)-3-(acetoxymethyl)-8-oxo-5-thia-1-azabicyclo[4.2.0]oct-2-ene-2-carboxylic Acid] | 0% |  | no measurable MIC values | % hydrolysis by NMR +βla (DH5α expressing CTX-M-1): 100%
6 | CC(=O)OCC1=C(C(=O)O)N2C(=O)[C@@H](NC(=O)Cc3ccc(Oc4ccccc4)cc3)[C@H]2SC1 [compound 17, (6R,7R)-3-(Acetoxymethyl)-8-oxo-7-(2-(4-phenoxyphenyl)acetamido)-5-thia-1-azabicyclo[4.2.0]oct-2-ene-2-carboxylic Acid] | 0% |  | no measurable MIC values | % hydrolysis by NMR +βla (DH5α + TEM-116): 54%
7 | CC(=O)OCC1=C(C(=O)O)N2C(=O)[C@@H](NC(=O)Cc3cccc(C)c3)[C@H]2SC1 [compound 18, (6R,7R)-3-(acetoxymethyl)-8-oxo-7-(2-(m-tolyl)acetamido)-5-thia-1-azabicyclo[4.2.0]oct-2-ene-2-carboxylic Acid] |  |  |  | increase in kcat/Km compared to cephalothin (recombinant AmpC protein): 3 fold; increase in kcat/Km compared to para-methyl 12 (recombinant AmpC protein): 5 fold
8 | CC(=O)OCC1=C(C(=O)O)N2C(=O)[C@@H](NC(=O)Cc3cccc(Oc4ccccc4)c3)[C@H]2SC1 [compound 19, (6R,7R)-3-(Acetoxymethyl)-8-oxo-7-(2-(3-phenoxyphenyl)acetamido)-5-thia-1-azabicyclo[4.2.0]oct-2-ene-2-carboxylic Acid] |  | 0% | no measurable MIC values | 
9 | CC(=O)OCC1=C(C(=O)O)N2C(=O)[C@@H](NC(=O)C3CCCCC3)[C@H]2SC1 [compound 25, (6R,7R)-3-(Acetoxymethyl)-7-(cyclohexanecarboxamido)-8-oxo-5-thia-1-azabicyclo[4.2.0]oct-2-ene-2-carboxylic Acid] |  | 0% |  | 

Source: PMC6511942, “Exploitation of Antibiotic Resistance as a Novel Drug Target: Development of a β-Lactamase-Activated Antibacterial Prodrug” (Journal of Medicinal Chemistry, 2019)
